System: mouse NK cell (NK1.1+CD3−) production from HPCs
Assay: In vitro development of NK cells from mouse HPCs (NK cell development assay, flow cytometry at Day 9)
Assay type: cell-based
Description: FIG. 2: Timeline of NK cell development assay. HPCs were isolated and cultured plus FIt3L, IL-7 and SCF cytokines. At Day 2, they were then transferred onto OP9 stromal cells plus or minus drug in culture medium plus the IL-15 cytokine. The media of the cultures were changed at Day 5 and the cells were harvested and analysed at Day 9.
Lineage negative cells are enriched for Hematopoietic Progenitor Cells (HPCs). […] Cells were harvested on Day 9 and analysed using flow cytometry to determine the number of NK1.1^+CD3^− cells (FIG. 2). NK1.1^+ and CD3^− are two cell surface markers that can define mouse NK cells. OP9 stromal cells were readily excluded from the analysis, as the OP9 stromal cells used were GFP positive (FIG. 3B). Flow cytometry data were analysed as the fold increase, relative to the ‘No drug’ or untreated control in each experiment. This is because the absolute percentage of NK cell production varies between experiments.
Lineage negative HSCs were purified from mouse bone marrow by crushing the leg bones in Phosphate-buffered Saline (PBS) with 2% fetal calf serum (FCS) (STEMCELL Technologies), topped up to 40 ml with magnetic-activated cell sorting (MACS) buffer (PBS, 2 mM EDTA, 0.5% BSA, sterile and filtered) and centrifuged at 800 g for 2 minutes. The cells were resuspended in PE-conjugated cocktail, (20 μl of anti-B220 (RA3-6B2), anti-mouse CD2 (RM2-5, anti-Ter119 (TER119) and anti-NK.1.1 (PK136) and 5 μl of anti-CD11b (M1/70) and anti-GR-1 (RB6-8C5) antibodies (all from Bioscience)) incubated for 5 minutes at 4° C., centrifuged and resuspended in anti-PE microbeads for 15 minutes at 4° C. Cells were washed in MACS buffer and passed through MACS columns. This allowed negative selection of HPCs. Following lineage depletion, 50 μl of the cells was analysed using flow cytometry to check for purity.
The HPCs were plated and cultured in 24-well plates at a concentration of 5×10^5 HPCs/well in 1 ml of complete cytokine medium (Dulbecco's modified eagle medium (DMEM) (Sigma Aldrich), 10% FCS, 50 μM β-Mercaptoethanol, 10 ng/ml Flt3-ligand (FIt3L) (R&D Systems), 10 ng/ml IL-7 (R&D Systems), 100 ng/ml stem cell factor (SCF) (R&D Systems) and 1% P/S) for 2 days at 37° C., 5% CO2. The HPCs were then transferred onto OP9 cells at 4500 cells/well for 96-well plate experiments and 3×10^4 cells/well for 24-well plate experiments in mouse NK cells differentiation medium (Alpha-MEM (Sigma Aldrich) plus 20% FCS, 1% P/S and 30 ng/ml IL-15). Cells were left in culture at 37° C., 5% CO2 for 7 days with a change of mouse NK cells differentiation medium at day 3 or 4.
Cells to be analysed by flow cytometry were passed through 40 μm cell strainers to remove clumps and washed with PBS buffer, centrifuged at 800 g for 2 minutes and resuspended in 100 μl fluorescent activated cell sorting (FACS) buffer (PBS plus 1% BSA) with appropriate fluorochrome conjugated antibodies at a dilution of 1 in 300. Cells were stained with the following antibodies, all of which were anti-mouse and are from eBioscience unless specified: 2B4 (clone m2B4(B6) 458.1; BioLegend), CD2 (RM2-5), CD3 (17A2), CD11b (M1/70), CD19 (1D3), CD27 (LG.7F9), CD122 (TM-b1), CD127 (A7R34), B220 (RA3-6B2), ckit (ACK2), Flt3 (A2F10), Gr1 (RB6-8C5), NK1.1 (PK136), Sca1 (D7), Ter119 (TER119), NKp46 (29A1.4) anti-human CD45 (HI30), anti-human CD2 (RPA-2.10) and anti-human CD56 (CMSSB). The lineage cocktail contained B220, CD2, CD11b, Gr1, NK1.1, and Ter119. Cells were stained in the dark at 4° C. for 30 minutes and then washed with 2 ml FACS buffer, centrifuged and resuspend in 300 μl FACS buffer plus Propidium Iodide (PI) also at a dilution of 1 in 300. Flow cytometry was performed using LSRFortessa™ cell analyser (Becton Dickinson Bioscience), sorted using FACSAria (Becton Dickinson) as indicated and full data analysis was done using FlowJo Software.

N#Cc1ccc(-c2csc(NN=C3CCCC3)n2)cc1 [Remodelin]
NK cell production compared to 'No drug' control (5 μM added Day 2, analysed Day 9, screen (FIG. 3)): significant increase

CC(C)(C)OC(=O)CN(Cc1ccc(Cl)cc1)Cc1ccc([N+](=O)[O-])s1 [GSK4112]
NK cell production reduced (GSK4112 tested at 2, 5, 10 and 20 μM (FIG. 6), concentration not given): ~50% | effect on NK cell production (summary in Discussion): decreasing NK cell production

NC(=O)c1ccc(-c2nc(-c3ccc4c(c3)OCCO4)c(-c3ccccn3)[nH]2)cc1 [D4476]
NK cell production compared to 'No drug' control (20 μM added Day 2, analysed Day 9, screen (FIG. 3)): significant increase
